Reference: US20150266864A1, “HETEROAROMATIC COMPOUNDS, METHOD FOR PREPARING THE COMPOUNDS, PHARMACEUTICAL COMPOSITIONS, USES AND METHOD FOR TREATING ACUTE AND CHRONIC PAIN” (CRISTÁLIA PRODUTOS QUÍMICOS FARMACÊUTICOS LTDA, priority 2012, published 2015)

Legend:
rats subjected to SNL = experiment: Spinal nerve ligation (SNL) L5 model, thermal hyperalgesia; type: in vivo, rat; settings: for paw withdrawal latency, thermal hyperalgesia: after 7 days of treatment; for reversal of hyperalgesia signs associated with neuropathic pain: ip during 7 days, 32.25 μmol/kg; for effect on thermal hyperalgesia after treatment interruption: after 7 days of 32.25 μmol/kg ip
Procedure: This experimental model was proposed by Kim and Chung [Kim, S. H.; Chung, J. M. Pain 1992, 50: 355-363] and consists of ligation of spinal nerves. Male Wistar rats, 180-220 g, were anesthetized with a mixture of ketamine and xylazine (60 mg/kg and 5 mg/kg, respectively) intraperitoneally. After the dorsal region asepsy, an incision was made between L5 and S1. The L6 transverse process was removed for locating the nerves L4 and L5, which were carefully isolated, and tight ligation of the L5 nerve with 6.0 silk thread was made, interrupting flow of the axon of the nerve. After this procedure, para-spinal muscles and skin were sutured, and then a topical antiseptic was applied. False operated animals (sham) were subjected to the same procedure, however the spinal nerve was not ligated.
This method aims to evaluate the animal behavior in response to hyperalgesic phenomenon resulting from the injury induced by the ligament of spinal nerve (L5). In this regard, paw withdrawal in response to thermal stimulus was used, and the thermal stimulus was induced by the radiant heat of an incandescent lamp bulb. The paw withdrawal test was performed as described for the assessment of thermal hyperalgesia in the sciatic nerve chronic constrictive injury model.
(§1) Differences were considered significant when p<0.05.
The treatment started on the 7th day after surgery. Compounds were diluted in water or DMSO and administered through intraperitoneal route on daily basis, during 7 days, at a dose of […]. The effectiveness of tested compounds was assessed on days 1, 3, and 7 days after treatment, always before the next administration of the compound. Latencies were also assessed on days 1, 3, and 7 after treatment interruption.

Swiss mice [1] = experiment: Hot plate model, assay for acute pain; type: in vivo; settings: ip, 32.25 μmol/kg, plate 52° C., compared to morphine sulfate at the same dose
From the text: The antinociceptive activity (AA) of the present invention selected compounds (C3, C9, C11, C12, C13, C15 and C17) was investigated in hot plate model [Hot Plate Model LE7406, Scientific Inc.] described by Kuraishi et al. [Kuraishi, Y., Harada, Y., Aratani, S., Satoh, M., Takagi, H. Brain Research 1983.273, 245-2523]. This method is valid to evaluate the analgesic activity of substances acting on the central nervous system. Swiss mice weighing 20-25 g were placed on a metal plate heated up to 52° C. The animals were withdrawn from the hot plate at the time they lead their forepaws toward the mouth to lick, being this an indicative of pain second Le Bars et al. [Le Bars, D., Gozariu, M., Cadden, S. W. Animal models of nociception. Pharmacol. Rev. 2001, 53 (4), 597-652]. In this way, it was analyzed how long the animal, treated or not (control) with the analgesic substance, remained on the plate at 52° C.; the longest residence time of an animal on the plate was 35 seconds. This time limit (or cut off) (35 s) was determined by the average of three measurements of latency control values, obtained for each animal multiplied by three, to prevent any kind of tissue injury on the footpad of animals's paw due to long permanence on the heated surface. The protocol consisted in the intraperitoneal (ip) injection of the selected compounds of the present invention at a dose of 32.25 μmol/kg. The antinociceptive activity was evaluated at intervals of 10 minutes until effect completely disappear and, compared to morphine sulfate ([…]) at the same dose of 32.25 μmoles/kg (12.2 mg/kg). The investigated parameter is the latency of reflex to paw withdrawal in response to thermal stimulus. The results were expressed as percentage of AA, which was calculated according to Equation 1 for each experiment.

Swiss mice [2] = experiment: Hot plate model, assay for acute pain; type: in vivo; settings: ip, 32.25 μmol/kg
[3] = tested on: rats subjected to sciatic nerve CCI; experiment: Chronic constrictive injury (CCI) of the sciatic nerve, thermal hyperalgesia, paw withdrawal test; type: in vivo, rat; settings: for increase in latency of paw withdrawal: since the 3rd day of treatment
Procedure: The chronic constrictive injury (CCI) was induced by sciatic nerve ligation according to the method described by Bennett and Xie [Bennett. G. J.; Xie, Y. K. Pain […], 33: 87-107]. Male Wistar rats, weighing 180-240 g, were anesthetized with a mixture of ketamine and xylazine (60 mg/kg and 5 mg/kg, respectively), intraperitoneally. Through an incision of 0.5 cm (parallel and spaced about 10 mm from the left femur) the sciatic nerve was identified. With a thin glass rod, a small segment of sciatic nerve was exposed and four loosely ligatures were placed around the sciatic nerve spaced 1 mm each other using a 3-0 silk suture thread. After the procedure, the skin was sutured and a topical antiseptic was applied.
To assess animal behavior in response to hyperalgesic phenomenon resulting from sciatic nerve chronic constrictive injury, the model described by Hargreaves and Dubner was used [Hargreaves K., Dubner R., Brown F., Flores C., Joris J. Pain 1988, 32 (1): 77-88]. In this regard, paw withdrawal in response to a painful phenomenon was performed. This is a nociceptive test which involves a peripheral short thermal stimulus induced by the radiant heat of an incandescent lamp bulb. […] Radiant heat has an advantage over the other modes of thermal stimulation in that it produces no tactile stimulus. [Le Bars D., Gozariu M., Cadden S. W. Pharmacology Reviews, 2001, 53 (4), 597-652]. In this assay, a plantar test analgesimeter (ITC Life Science Inc, USA) was used.
Animals were placed in transparent acrylic boxes with tempered glass pane floor for 40 minutes to acclimate. After this period, the radiant heat was applied to the footpads of animals's hindpaws until they make the movement of paw withdrawal. The paw withdrawal latency was defined as the time recorded from the beginning of the radiant heat stimulus and the paw withdrawal. For each paw, three latency records were made, and the average value was used to define the paw withdrawal time control The maximum time that each animal was exposed to the radiant heat source (cut-off) was defined as three times the paw withdrawal time control, to avoid tissue injuries in animals's paws.
The day before surgery, rats, defined as “control before surgery”, were placed in acrylic boxes to the paw withdrawal test. On the 7th day after the surgery (CCI), the paw withdrawal test was again performed in order to verify neuropathic pain has been effectively developed in the left paw—defined as “post-surgery control.”
The paw withdrawal test was assessed during the days 1, 3, and 7 of the treatment (with amitriptyline hydrochloride or the compounds of examples of the instant invention) and on days 1, 3, and 7 after treatment interruption.
as §1

[4] = first day of treatment, 32.25 μmol/kg ip
[5] = 32.25 μmol/kg ip, p<0.05 or p<0.005

SMILES: CN1CCN(CCc2c[nH]nc2-c2ccc(F)cc2)CC1.Cl.Cl.Cl.O.O [C11, 1-{2-[3-(4-fluorophenyl)-1H-pyrazol-4-yl]ethyl}-4-methylpiperazine trihydrochloride dihydrate]
- paw withdrawal latency, thermal hyperalgesia (rats subjected to SNL; 32.25 μmol/kg ip): statistically significant antinociceptive effect
- reversal of hyperalgesia signs associated with neuropathic pain (rats subjected to SNL): effective in reverse the hyperalgesia and allodynia signs
- antinociceptive activity (AA), hot plate (Swiss mice [1]): exhibit antinociceptive activity of intensity and kinetics similar to morphine sulfate
- side effects compared to morphine (Swiss mice [2]): no side effects of conventional morphine
- antinociceptive effect, paw withdrawal latency vs post-surgery control [3, 4]: antinociceptive effects in the first day of treatment
- increase in latency of paw withdrawal [3, 5]: statistically significant increase in latency of paw withdrawal

SMILES: Cl.Cl.Fc1ccc(-c2n[nH]cc2CCN2CCOCC2)cc1.O [C9, 4-{2-[3-(4-fluorophenyl)-1H-pyrazol-4-yl]ethyl}morpholine dihydrochloride monohydrate]
- paw withdrawal latency, thermal hyperalgesia (rats subjected to SNL; 32.25 μmol/kg ip): statistically significant antinociceptive effect
- reversal of hyperalgesia signs associated with neuropathic pain (rats subjected to SNL): effective in reverse the hyperalgesia and allodynia signs
- antinociceptive activity (AA), hot plate (Swiss mice [1]): exhibit antinociceptive activity of intensity and kinetics similar to morphine sulfate
- side effects compared to morphine (Swiss mice [2]): no side effects of conventional morphine
- increase in latency of paw withdrawal [3, 5]: statistically significant increase in latency of paw withdrawal

SMILES: Cl.Cl.Fc1ccc(-c2n[nH]cc2CCN2CCCCC2)cc1.O [C3, 1-{2-[3-(4-fluorophenyl)-1H-pyrazol-4-yl]ethyl}piperidine dihydrochloride monohydrate]
- effect on thermal hyperalgesia after treatment interruption (rats subjected to SNL): still observed up to 1 day after treatment interruption
- increase in paw withdrawal latency (rats subjected to SNL; since the first day of treatment, 32.25 μmol/kg ip): statistically significant increase in paw withdrawal latency
- antinociceptive activity (AA), hot plate (Swiss mice [1]): exhibit antinociceptive activity of intensity and kinetics similar to morphine sulfate
- side effects compared to morphine (Swiss mice [2]): no side effects of conventional morphine
- onset of significant increase in latency ([3]; 5 mg/kg ip): significant increase in latency starting on day 3 of treatment
- reversal of signs of thermal hyperalgesia ([3]; 5 mg/kg ip during 7 days): effective in reversing the signs of thermal hyperalgesia
- onset of significant increase in latency ([3]; 10 mg/kg ip): significant increase in latency starting on day 3 of treatment
- reversal of signs of thermal hyperalgesia ([3]; 10 mg/kg ip during 7 days): effective in reversing the signs of thermal hyperalgesia
- antinociceptive effect, paw withdrawal latency vs post-surgery control [3, 4]: antinociceptive effects in the first day of treatment
- increase in latency of paw withdrawal [3, 5]: statistically significant increase in latency of paw withdrawal

SMILES: CCOC(=O)C1(c2ccccc2)CCN(CCc2conc2-c2ccc(F)cc2)CC1.Cl [C17, Ethyl 1-{2-[3-(4-fluorophenyl)-1,2-oxazol-4-yl]ethyl}-4-phenylpiperidine-4-carboxylate hydrochloride]
- paw withdrawal latency, thermal hyperalgesia (rats subjected to SNL; 32.25 μmol/kg ip): statistically significant antinociceptive effect
- reversal of hyperalgesia signs associated with neuropathic pain (rats subjected to SNL): effective in reverse the hyperalgesia and allodynia signs
- antinociceptive activity (AA), hot plate (Swiss mice [1]): exhibit antinociceptive activity of intensity and kinetics similar to morphine sulfate
- side effects compared to morphine (Swiss mice [2]): no side effects of conventional morphine
- antinociceptive effect, paw withdrawal latency vs post-surgery control [3, 4]: antinociceptive effects in the first day of treatment
- latency increase, statistical significance ([3]; first day of treatment, 32.25 μmol/kg ip, p<0.05 or p<0.005): the latency increase was statistically significant

SMILES: Cl.OC1(c2ccc(Cl)cc2)CCN(CCc2conc2-c2ccc(F)cc2)CC1 [C15, 4-(4-chlorophenyl)-1-{2-[3-(4-fluorophenyl)-1,2-oxazol-4-yl]ethyl}piperidin-4-ol hydrochloride]
- effect on thermal hyperalgesia after treatment interruption (rats subjected to SNL): maintained for 1 day after treatment interruption
- paw withdrawal latency, thermal hyperalgesia (rats subjected to SNL; 32.25 μmol/kg ip): statistically significant antinociceptive effect
- reversal of hyperalgesia signs associated with neuropathic pain (rats subjected to SNL): effective in reverse the hyperalgesia and allodynia signs
- antinociceptive activity (AA), hot plate (Swiss mice [1]): exhibit antinociceptive activity of intensity and kinetics similar to morphine sulfate
- side effects compared to morphine (Swiss mice [2]): no side effects of conventional morphine
- antinociceptive effect, paw withdrawal latency vs post-surgery control [3, 4]: antinociceptive effects in the first day of treatment
- increase in latency of paw withdrawal [3, 5]: statistically significant increase in latency of paw withdrawal
